Measurements from patent US11141413B2, “Method of treating renal cell carcinoma using N-(4-(6,7-dimethoxyquinolin-4-yloxy)phenyl)-N′-(4-fluorophenyl)cyclopropane-1,1-dicarboxamide, (2S)-hydroxybutanedioate” (Exelixis, Inc., priority 2016, dated 2021).

Test system: patients with advanced renal cell carcinoma
Assay: METEOR quality of life (FKSI-19, FKSI-DRS, EQ-5D-5L) and time to deterioration
Format: in vivo, human
Details: for Able to work, LSMean change from baseline / Blood in my urine, LSMean change from baseline / Bone pain, LSMean change from baseline / Content with quality life, LSMean change from baseline / Coughing, LSMean change from baseline / Diarrhea, LSMean change from baseline / Enjoy life, LSMean change from baseline / Fatigued, LSMean change from baseline / Fevers, LSMean change from baseline / Good appetite, LSMean change from baseline / Lack of energy, LSMean change from baseline / Losing weight, LSMean change from baseline / Nausea, LSMean change from baseline / Pain, LSMean change from baseline / Short of breath, LSMean change from baseline / Side effects of treatment, LSMean change from baseline / Sleeping well, LSMean change from baseline / Weak all over, LSMean change from baseline / Worry condition worsen, LSMean change from baseline: FKSI-19 item; for DRS-Emotional, LSMean change from baseline / DRS-Physical, LSMean change from baseline / Function/Well-Being, LSMean change from baseline / Treatment Side Effects, LSMean change from baseline: FKSI-19 subscale; for EQ-VAS, Cabo vs Evero Intercept (change at Week 4) / EQ-VAS, Cabo vs Evero Slope / FKSI-19 Total, Cabo vs Evero Intercept (change at Week 4) / FKSI-19 Total, Cabo vs Evero Slope / FKSI-DRS (9-item), Cabo vs Evero Intercept (change at Week 4) / FKSI-DRS (9-item), Cabo vs Evero Slope / EQ-Index, Evero Intercept (change at Week 4) / EQ-VAS, Evero Intercept (change at Week 4) / FKSI-19 Total, Evero Intercept (change at Week 4) / FKSI-DRS (9-item), Evero Intercept (change at Week 4): growth curve analysis; for Median time to deterioration (TTD): earlier of death, rPD, ≥4-point FKSI-DRS decrease from baseline
From the text: Patients completed the 19-item Functional Assessment of Cancer Therapy-Kidney Symptoms Index (FKSI-19) and the 5-level EuroQoL-5 Dimensions (EQ-5D-5L) questionnaires at baseline and throughout the study. The 9-item FKSI-Disease Related Symptoms (FKSI-DRS) is a subset of FKSI-19. Data were summarized descriptively and by mixed-effects repeated-measures analysis (clinically relevant difference was an effect size ≥0.3). Time to deterioration (TTD) was defined as earlier of death, radiographic progressive disease or ≥4-point decrease from baseline in FKSI-DRS.
QoL was measured by using two validated patient self-reported instruments: the Functional Assessment of Cancer Therapy-Kidney Symptom Index-19 item (FKSI-19) and EuroQol Group's EQ-5D-5L questionnaires. Patients were required to complete the QoL questionnaires before any assessments at each clinic visit prior to the first dose, every 4 weeks through Week 25, every 8 weeks thereafter for the first year, then every 12 weeks thereafter. The QoL assessments were conducted per protocol prior to the patient knowing the results of their next tumor assessment. These assessments were performed regardless of whether study treatment was given, reduced, interrupted, or discontinued until the date of the last tumor imaging assessment. Questionnaires were provided on paper in the patient's own language.
The FKSI-19 instrument is a 19-item self-reported questionnaire with a total score and four subscales that assesses disease-related symptoms (DRS), treatment side effects, and function/well-being associated with advanced kidney cancer. It queries symptom severity and interference in activity and general health perceptions (Rao D, Butt Z, Rosenbloom S, Robinson D Jr, Von Roenn J, Kuzel T M, Cella D. A Comparison of the Renal Cell Carcinoma-Symptom Index (RCC-SI) and the Functional Assessment of Cancer Therapy-Kidney Symptom Index (FKSI). J Pain Symptom Manage. 2009; 38(2):291-8; Rothrock N E, Jensen S E, Beaumont J L, Abernethy A P, Jacobsen P B, Syrjala K, Cella D. Development and initial validation of the NCCN/FACT symptom index for advanced kidney cancer. Value Health. 2013; 16(5):789-96). The FKSI-19 comprises four sub-scales (DRS-Physical, DRS-Emotional, Treatment Side Effects, and Function/Well Being; Table 2.1). Each of the items is scored on a 5-point scale from 0 (not at all) to 4 (very much). Higher FKSI-19 scores indicate improvement. The FKSI-19 ensures content validity congruent with FDA Guidance (FDA. Guidance for Industry. Patient-Reported Outcome Measures: Use in Medical Product Development to Support Labeling Claims. December 2009). and was developed from a previous 9-item DRS version (FKSI-DRS; lack of energy, pain, losing weight, fatigue, short of breath, fevers, bone pain, coughing, blood in urine). The FKSI-19 includes selected treatment side effects that are important to the patient and physician.
The standardized measure of health status EQ-5D-5L, developed by the EuroQol, was also used in this study in order to measure generic health status (Herdman M, Gudex C, Lloyd A, Janssen M, Kind P, Parkin D, t al. Development and preliminary testing of the new five-level version of EQ-5D (EQ-5D-5L). Qual Life Res. 2011; 20(10):1727-36). It comprises five functional and symptom dimensions: mobility, self-care, usual activities, pain/discomfort, and anxiety/depression. Levels indicate increasing severity from Level 1 (no problem) to Levels 2 through 5 (mild problem to extreme problem). The digits from the 5 dimensions were converted into a single population-based index value normalized across the nine countries in the study for which index value sets were available (van Hout B, Janssen M F, Feng Y S, Kohlmann T, Busschbach J, Golicki D, et al. Interim scoring for the EQ-5D-5L: mapping the EQ-5D-5L to EQ-5D-3L value sets. Value Health. 2012; 15(5):708-15). Index values range from 0 to 1 and a higher index score indicates better health. […]

[1] = bone metastases per IRC at baseline: No
[2] = bone metastases per IRC at baseline: Yes
[3] = cabozantinib vs everolimus, positive favors cabozantinib
[4] = Late Dropout (Week 41 or later)

SMILES: COc1cc2nccc(Oc3ccc(NC(=O)C4(C(=O)Nc5ccc(F)cc5)CC4)cc3)c2cc1OC [cabozantinib]
- Able to work, LSMean change from baseline (repeated measures, ITT): −0.151
- Blood in my urine, LSMean change from baseline (repeated measures, ITT): 0.005
- Bone pain, LSMean change from baseline (repeated measures, ITT): 0.049
- Content with quality life, LSMean change from baseline (repeated measures, ITT): −0.035
- Coughing, LSMean change from baseline (repeated measures, ITT): 0.237
- Diarrhea, LSMean change from baseline (repeated measures, ITT): −1.28
- Enjoy life, LSMean change from baseline (repeated measures, ITT): −0.017
- Fatigued, LSMean change from baseline (repeated measures, ITT): −0.325
- Fevers, LSMean change from baseline (repeated measures, ITT): 0.056
- Good appetite, LSMean change from baseline (repeated measures, ITT): −0.166
- Lack of energy, LSMean change from baseline (repeated measures, ITT): −0.244
- Losing weight, LSMean change from baseline (repeated measures, ITT): −0.533
- Nausea, LSMean change from baseline (repeated measures, ITT): −0.236
- Pain, LSMean change from baseline (repeated measures, ITT): 0.125
- Short of breath, LSMean change from baseline (repeated measures, ITT): 0.029
- Side effects of treatment, LSMean change from baseline (repeated measures, ITT): −0.850
- Sleeping well, LSMean change from baseline (repeated measures, ITT): 0.018
- Weak all over, LSMean change from baseline (repeated measures, ITT): −0.281
- Worry condition worsen, LSMean change from baseline (repeated measures, ITT): 0.398
- DRS-Emotional, LSMean change from baseline (repeated measures, ITT): 0.398
- DRS-Physical, LSMean change from baseline (repeated measures, ITT): −1.093
- Function/Well-Being, LSMean change from baseline (repeated measures, ITT): −0.230
- Treatment Side Effects, LSMean change from baseline (repeated measures, ITT): −2.416
- Median TTD [1]: 5.5 mo
- TTD HR, cabozantinib vs everolimus [1]: 0.69
- Median TTD [2]: 5.6 mo
- TTD HR, cabozantinib vs everolimus [2]: 0.49
- Able to work, Effect Size [3]: −0.037
- Blood in my urine, Effect Size [3]: 0.023
- Bone pain, Effect Size [3]: −0.008
- Content with quality life, Effect Size [3]: −0.014
- Coughing, Effect Size [3]: 0.28
- DRS-Emotional, Effect Size [3]: 0.004
- DRS-Physical, Effect Size [3]: 0.046
- EQ-VAS, Effect Size [3]: −0.003
- Enjoy life, Effect Size [3]: −0.002
- FKSI-19 (19-item) Total Score, Effect Size [3]: −0.13
- FKSI-DRS (9-item), Effect Size [3]: 0.087
- Fatigued, Effect Size [3]: −0.017
- Fevers, Effect Size [3]: 0.13
- Function/Well-Being, Effect Size [3]: −0.019
- Good appetite, Effect Size [3]: −0.23
- Lack of energy, Effect Size [3]: −0.033
- Losing weight, Effect Size [3]: −0.21
- Pain, Effect Size [3]: 0.052
- Side effects of treatment, Effect Size [3]: −0.24
- Sleeping well, Effect Size [3]: 0.12
- Weak all over, Effect Size [3]: −0.015
- Worry condition worsen, Effect Size [3]: 0.004
- EQ-VAS, Cabo vs Evero Intercept (change at Week 4) (Early Dropout (before Week 24)): −1.933
- EQ-VAS, Cabo vs Evero Slope (Early Dropout (before Week 24)): 0.498
- FKSI-19 Total, Cabo vs Evero Intercept (change at Week 4) (Early Dropout (before Week 24)): 0.241
- FKSI-19 Total, Cabo vs Evero Slope (Early Dropout (before Week 24)): 0.131
- FKSI-DRS (9-item), Cabo vs Evero Intercept (change at Week 4) (Early Dropout (before Week 24)): 1.445
- FKSI-DRS (9-item), Cabo vs Evero Slope (Early Dropout (before Week 24)): 0.037
- EQ-VAS, Cabo vs Evero Intercept (change at Week 4) [4]: −4.749
- EQ-VAS, Cabo vs Evero Slope [4]: 0.134
- FKSI-19 Total, Cabo vs Evero Intercept (change at Week 4) [4]: −5.141
- FKSI-19 Total, Cabo vs Evero Slope [4]: 0.082
- FKSI-DRS (9-item), Cabo vs Evero Intercept (change at Week 4) [4]: −1.307
- FKSI-DRS (9-item), Cabo vs Evero Slope [4]: 0.046
- EQ-VAS, Cabo vs Evero Intercept (change at Week 4) (Median Dropout (Weeks 25-33)): −0.352
- EQ-VAS, Cabo vs Evero Slope (Median Dropout (Weeks 25-33)): 0.146
- FKSI-19 Total, Cabo vs Evero Intercept (change at Week 4) (Median Dropout (Weeks 25-33)): −2.003
- FKSI-19 Total, Cabo vs Evero Slope (Median Dropout (Weeks 25-33)): 0.141
- FKSI-DRS (9-item), Cabo vs Evero Intercept (change at Week 4) (Median Dropout (Weeks 25-33)): −0.313
- FKSI-DRS (9-item), Cabo vs Evero Slope (Median Dropout (Weeks 25-33)): 0.094
- TTD HR, cabozantinib vs everolimus (overall ITT, unstratified): 0.65
- Median time to deterioration (TTD) (overall ITT): 5.5 mo
- EQ-VAS, LSMean change from baseline (repeated measures, ITT): −1.32
- FKSI-19 (19-item) Total Score, LSMean change from baseline (repeated measures, ITT): −3.483
- FKSI-DRS (9-item), LSMean change from baseline (repeated measures, ITT): −0.52

SMILES: CO[C@H]1C[C@@H]2CC[C@@H](C)[C@@](O)(O2)C(=O)C(=O)N2CCCC[C@H]2C(=O)O[C@H]([C@H](C)C[C@@H]2CC[C@@H](OCCO)[C@H](OC)C2)CC(=O)[C@H](C)/C=C(\C)[C@@H](O)[C@@H](OC)C(=O)[C@H](C)C[C@H](C)/C=C/C=C/C=C/1C [everolimus]
- Able to work, LSMean change from baseline (repeated measures, ITT): −0.101
- Blood in my urine, LSMean change from baseline (repeated measures, ITT): −0.001
- Bone pain, LSMean change from baseline (repeated measures, ITT): 0.057
- Content with quality life, LSMean change from baseline (repeated measures, ITT): −0.017
- Coughing, LSMean change from baseline (repeated measures, ITT): −0.059
- Diarrhea, LSMean change from baseline (repeated measures, ITT): −0.326
- Enjoy life, LSMean change from baseline (repeated measures, ITT): −0.014
- Fatigued, LSMean change from baseline (repeated measures, ITT): −0.305
- Fevers, LSMean change from baseline (repeated measures, ITT): −0.021
- Good appetite, LSMean change from baseline (repeated measures, ITT): 0.181
- Lack of energy, LSMean change from baseline (repeated measures, ITT): −0.207
- Losing weight, LSMean change from baseline (repeated measures, ITT): −0.301
- Nausea, LSMean change from baseline (repeated measures, ITT): 0.069
- Pain, LSMean change from baseline (repeated measures, ITT): 0.067
- Short of breath, LSMean change from baseline (repeated measures, ITT): −0.271
- Side effects of treatment, LSMean change from baseline (repeated measures, ITT): −0.523
- Sleeping well, LSMean change from baseline (repeated measures, ITT): −0.152
- Weak all over, LSMean change from baseline (repeated measures, ITT): −0.265
- Worry condition worsen, LSMean change from baseline (repeated measures, ITT): 0.393
- DRS-Emotional, LSMean change from baseline (repeated measures, ITT): 0.393
- DRS-Physical, LSMean change from baseline (repeated measures, ITT): −1.386
- Function/Well-Being, LSMean change from baseline (repeated measures, ITT): −0.169
- Treatment Side Effects, LSMean change from baseline (repeated measures, ITT): −0.814
- Median TTD [1]: 3.8 mo
- Median TTD [2]: 1.9 mo
- EQ-Index, Evero Intercept (change at Week 4) (Early Dropout (before Week 24)): −0.046
- EQ-VAS, Evero Intercept (change at Week 4) (Early Dropout (before Week 24)): −2.474
- FKSI-19 Total, Evero Intercept (change at Week 4) (Early Dropout (before Week 24)): −3.643
- FKSI-DRS (9-item), Evero Intercept (change at Week 4) (Early Dropout (before Week 24)): −2.002
- EQ-Index, Evero Intercept (change at Week 4) [4]: 0.033
- EQ-VAS, Evero Intercept (change at Week 4) [4]: 1.012
- FKSI-19 Total, Evero Intercept (change at Week 4) [4]: 1.105
- FKSI-DRS (9-item), Evero Intercept (change at Week 4) [4]: 0.453
- EQ-Index, Evero Intercept (change at Week 4) (Median Dropout (Weeks 25-33)): −0.018
- EQ-VAS, Evero Intercept (change at Week 4) (Median Dropout (Weeks 25-33)): −1.181
- FKSI-19 Total, Evero Intercept (change at Week 4) (Median Dropout (Weeks 25-33)): −1.838
- FKSI-DRS (9-item), Evero Intercept (change at Week 4) (Median Dropout (Weeks 25-33)): −0.843
- Median time to deterioration (TTD) (overall ITT): 3.7 mo
- EQ-Index, LSMean change from baseline (repeated measures, ITT): −0.02
- EQ-VAS, LSMean change from baseline (repeated measures, ITT): −1.27
- FKSI-19 (19-item) Total Score, LSMean change from baseline (repeated measures, ITT): −2.214
- FKSI-DRS (9-item), LSMean change from baseline (repeated measures, ITT): −0.93
